Results published in patent US11969499B2, “Hydrogel delivery of sting immunotherapy for treatment cancer” (WILLIAM MARSH RICE UNIVERSITY, priority 2017, dated 2024).

Assays:
[1] = In vivo subcutaneous hydrogel implants, histology (Masson's trichrome, H&E); conditions: 910 μM CDN where loaded
Experimental: In vivo subcutaneous implants. 200 μL subcutaneous injections are made in two separate 1-inch spaced sites on the dorsal flank. At tested time points mice are euthanized and the dorsal skin around the entire implant is removed, washed with PBS, and fixed in formalin for 24 hours prior to tissue processing (Wellings & Atherton, 1997; Guy & Fields, 1997). Details are provided in the Vertebrate Animal section. Tissue is processed to paraffin blocks, sectioned at 7 μm, deparaffinized and stained for cellular infiltrate using hematoxylin and eosin (H&E) and Masson's Trichrome. Here, and elsewhere, male and female populations will be assessed combined as well as separately to determine if sexual dichotomy exists in the biomaterial interaction and regenerative response.
Subcutaneous experiments and histology. Male/female mice (C57BL/6 strain) of age 8-12 weeks were obtained for subcutaneous experiments, which were conducted with Rice IACUC approval and according to NIH guidelines. Mice were injected with 40 μL CDN-loaded hydrogel (910 μM CDN) or 100 μL unloaded hydrogel in each of four separate sites in the subcutaneous space of the dorsal flank. At days 3 and 7 the mice were euthanized and the dorsal skin around the entire implant was removed, fixed overnight in 10% neutral buffered formalin, processed and paraffin embedded by the Baylor College of Medicine Pathology Core, and finally sectioned at 5 μm thickness for Masson's trichrome staining and hematoxylin and eosin (H&E) staining (FIGS. 14A-F and 16A-F).

[2] = tested on: MOC2-E6E7 tumors; experiment: Tumor growth and survival study (Examples 3-4); assay type: in vivo, C57BL/6 mice; conditions: day 105 after initial inoculation; n=10 per group
Experimental: Tumor growth and survival study. For tumor experiments, 6-8 week old wild-type C57BL/6 female mice were maintained in a pathogen-free environment for the study. All protocols were in accordance with the guidelines for humane treatment of laboratory animals by the National Institutes of Health, the Animal Welfare Committee and the Center for Laboratory Animal Medicine and Care (CLAMC) at the University of Texas Health Science Center at Houston. Mice were injected with MOC2-E6E7 tumor cells on day 0 into the maxillary oral vestibule (30,000 cells in 30 μL volume), followed by controls or gel injections loaded with or without CDN on day 3 in the same oral cavity location (20 lag CDN per 30 μL injection). Tumor growth was measured using calipers and body weight was taken in all subjects two to three times per week. Photographs were also obtained. Kaplan-Meier survival and tumor growth curve analyses were performed from data obtained. Mice that maintained tumor clearance for 100 days were re-challenged with MOC2-E6E7 tumor cells again at day 105 and monitored similarly. All endpoints in tumor growth curve and survival data are a result of euthanasia due to excessive tumor burden, defined as tumor reaching 12 mm, tumor ulceration, or a weight loss of greater than 20%. The inventors observed no signs of unexpected disease or discomfort in the mice over the course of the experiments.
Statistical methods. Statistical analyses for Kaplan-Meier survival curves were performed using the log-rank/Mantel-Cox test with GraphPad Prism (GraphPad, San Diego, CA). For tumor growth curves, the Wilcoxon rank sum test was used to compare tumor size between STINGel and other groups. No adjustment for multiple testing was made because the study is novel and exploratory. All p values are two-sided and p values less than 0.05 were considered as significant. All statistical analyses were performed using the SAS software (version 9.4, the SAS Institute, Cary, NC).

K2(SL)6K2 (SEQ ID NO: 1) (Ac-KKSLSLSLSLSLSLKK-NH2) [MDP gel, self-assembling multidomain peptide hydrogel, acetylated N-terminus and C-terminal amide]
cellular infiltration of implant ([1]; 3 days post subcutaneous injection, listed as MDP control): even infiltration of cells
cellular infiltration of implant ([1]; 3 days post subcutaneous injection, listed as MDP unloaded control): even infiltration of cells
cellular infiltration of implant ([1]; 3 days post subcutaneous injection, listed as unloaded MDP): Uniform cellular infiltration
cellular infiltration of implant ([1]; 7 days post subcutaneous injection): even infiltration of cells
mice maintaining tumor clearance and reaching reinoculation point [2]: No mice
